US20180049996A1, “THERAPEUTIC AGENT FOR CHRONIC RESPIRATORY DISEASE AND COMPOSITION FOR INHIBITING CARDIAC FIBROSIS” (NIPPON HYPOX LABORATORIES INCORPORATED, priority 2015, published 2018)

System: Pulmonary Fibrosis Induced by Bleomycin
Assay: Bronchoalveolar lavage (BAL) examination, cell numbers, pulmonary fibrosis induced by bleomycin
Type: in vivo, male SD rats
Protocol: Bleomycin is used to produce disease-model animals of interstitial pneumonia. The bleomycin and 2,3,5-trimethylhydroquinone-1-hexyl ether (HTHQ) as the hydroquinone derivative represented by the general formula (1) described above of the present invention were simultaneously administered to male SD rats of 10 week old after birth to examine the effect of the action. The test groups consisted of the control group to which sterile saline was administered; test group 1 to which bleomycin (7.5 mg/kg body weight) alone was administered; test group 2 to which bleomycin (7.5 mg/kg body weight) and HTHQ (50 mg/kg body weight/day) were administered in combination; and test group 3 to which bleomycin (7.5 mg/kg body weight) and HTHQ (200 mg/kg body weight/day) were administered in combination.
In test groups 1 to 3, bleomycin was orally administered in a single dose. In test groups 2 and 3, 2,3,5-trimethylhydroquinone-1-hexyl ether (HTHQ) was daily orally administered for 10 or 20 days starting from 24 h after the administration of bleomycin. In test group 1, olive oil, which was used as a solvent of HTHQ, was daily orally administered at 10 mL/kg/day starting from 24 h after the administration of bleomycin. The number of animals in each group was 16. 8 animals of each group were sacrificed on days 10 and 20 after the administration of bleomycin and measurement of body weight, lung autopsy, histopathologic examination of lungs and bronchoalveolar lavage examination were conducted.
Bronchoalveolar lavage (BAL) examination was conducted on the rats in the control group and the test groups. When interstitial pneumonia developed, the infiltration of inflammatory cells occurs and thus the total cell number in BAL fluid increases. The total cell numbers on day 10 after the administration of bleomycin were as follows: 2×10^5 cells in the control group, 9×10^5 cells in test group 1 (the bleomycin-single administration group), 6.5×10^5 cells in test group 2 (the low-dose HTHQ-administered group, 50 mg/kg body weight), and 10.5×10^5 cells in test group 3 (the high-dose HTHQ-administered group, 200 mg/kg body weight), and thus the effect of HTHQ administration was not found on day 10 after the administration of bleomycin.
When interstitial pneumonia developed, the infiltration of alveolar macrophages to interstitial tissue occurs and thus the alveolar macrophage number in BAL fluid increases. The alveolar macrophage numbers on day 10 after the administration of bleomycin were as follows: 1.45×10^5 cells in the control group, 4.5×10^5 cells in test group 1 (the bleomycin-single administration group), 1.99×10^5 cells in test group 2 (the low-dose HTHQ-administered group), and 3.24×10^5 cells in test group 3 (the high-dose HTHQ-administered group), and thus the effect of HTHQ administration was not found on day 10 after the administration of bleomycin. However, on day 20 after the administration, while the alveolar macrophage number of the bleomycin-single administration group was 5.5×10^5 cells, the alveolar macrophage number of the low-dose HTHQ-administered group was 3×10^5 cells and the alveolar macrophage number of the high-dose HTHQ-administered group was decreased to 2×10^5 cells.
When interstitial pneumonia developed, the infiltration of inflammatory cells of neutrophils to interstitial tissue occurs and thus the neutrophil number in BAL fluid increases. The neutrophil numbers on day 10 after the administration of bleomycin were as follows: 1.04×10^4 cells in the control group, 2.28×10^5 cells in test group 1 (the bleomycin-single administration group), 1.44×10^5 cells in test group 2 (the low-dose HTHQ-administered group), and 5.83×10^5 cells in test group 3 (the high-dose HTHQ-administered group), and thus the effect of HTHQ was not found on day 10 after the administration of bleomycin. […]

[1] = Test group 2: bleomycin + HTHQ 50 mg/kg/day oral, day 10
[2] = Test group 3: bleomycin + HTHQ 200 mg/kg/day oral, day 10
[3] = bleomycin + HTHQ 50 mg/kg/day oral (low-dose), day 20
[4] = bleomycin + HTHQ 200 mg/kg/day oral (high-dose), day 20

CCCCCCOc1cc(C)c(O)c(C)c1C [HTHQ, 2,3,5-trimethylhydroquinone-1-hexyl ether]
alveolar macrophage number in BAL fluid [1]: 1.99×10^5 cells
lymphocyte number in BAL fluid [1]: 3.07×10^5 cells
neutrophil number in BAL fluid [1]: 1.44×10^5 cells
total cell number in BAL fluid [1]: 6.5×10^5 cells
alveolar macrophage number in BAL fluid [2]: 3.24×10^5 cells
lymphocyte number in BAL fluid [2]: 1.43×10^5 cells
neutrophil number in BAL fluid [2]: 5.83×10^5 cells
total cell number in BAL fluid [2]: 10.5×10^5 cells
alveolar macrophage number in BAL fluid [3]: 3×10^5 cells
lymphocyte number in BAL fluid [3]: 0.53×10^5 cells
neutrophil number in BAL fluid [3]: 4.34×10^5 cells
total cell number in BAL fluid [3]: 7.9×10^5 cells
alveolar macrophage number in BAL fluid [4]: 2×10^5 cells
lymphocyte number in BAL fluid [4]: 0.3×10^5 cells
neutrophil number in BAL fluid [4]: 1.49×10^5 cells
total cell number in BAL fluid [4]: 3.8×10^5 cells
